Test results taken from publication PMC5589637, “New perspectives of cobalt tris(bipyridine) system: anti-cancer effect and its collateral sensitivity towards multidrug-resistant (MDR) cancers” (Oncotarget, 2017).
pIC50: −log10 of the molar value.

Legend:
[1] = system: SGC-7901 cisplatin-sensitive cancer cells; assay: MTT cytotoxicity, cisplatin-sensitive SGC-7901; assay type: cell-based; conditions: 72 h
Source text: (§1) All cells were obtained from the American Type Culture Collection (Rockville, MD, USA) unless otherwise specified. Immortalized wild-type and Atg7-deficient mouse embryonic fibroblasts (MEFs) were kindly provided by Professor Masaaki Komatsu (Juntendo University, School of Medicine, Japan). Taxol-resistant types of MCF-7, HCT-8, A549 cancers cells and cisplatin-resistant SGC7901 cancer cells were purchased from KeyGEN BioTECH, China. Cisplatin-sensitive or –resistant A2780, OV2008 and C13 cancer cells were kindly provided by Prof. Benjamin Tsang (Department of Obstetrics and Gynecology and Department of Cellular and Molecular Medicine, University of Ottawa, Canada). HCT116 p53^+/+ and p53^−/− isogenic human colon cancer cells were kindly provided by Professor Bert Vogelstein (Ludwig Center at Johns Hopkins, Howard Hughes Medical Institute, USA). All media were supplemented with 10% fetal bovine serum and antibiotics penicillin (50 U/ml) and streptomycin (50 μg/ml; Invitrogen, Paisley, Scotland, UK). All cell cultures were incubated at 37°C in a 5% humidified CO2 incubator.
(§2) All tested compounds were dissolved in DMSO at a final concentration of 50 mmol/L and stored at −20°C before use. Cytotoxicity was assessed by using the 3-(4,5-dimethylthiazol-2-yl)-2, 5-diphenyltetrazolium bromide (MTT) (5.0 mg/ml) assay as previously described. Briefly, 4×10^3 cells per well were seeded in 96-well plates before drug treatments. After overnight culture, the cells were then exposed to different concentrations of selected compounds ([…]) for 72 hours. Cells without drug treatment were used as control. Subsequently, MTT (10 μL) solution was added to each well and incubated at 37°C for 4 hours followed by the addition of 100 μL solubilization buffer (10%SDS in 0.01 mol/L HCl) and overnight incubation. A570 nm was then determined in each well on the next day. The percentage of cell viability was calculated using the following formula: Cell viability (%) = Atreated/Acontrol × 100. Data were obtained from three independent experiments.

[2] = system: cisplatin-resistant cancer cells (A2780, SGC-7901, OV2008 and C13); assay: MTT cytotoxicity, summary over cisplatin-sensitive/resistant pairs; assay type: cell-based; conditions: over A2780, SGC-7901, OV2008/C13 pairs
Procedure: as §2

[3] = system: SGC-7901 cisplatin-resistant cancer cells; assay: MTT cytotoxicity, cisplatin-resistant SGC-7901; assay type: cell-based
Source text: as §1, §2

[4] = system: A2780 cisplatin-sensitive cancer cells; assay: MTT cytotoxicity, cisplatin-sensitive A2780; assay type: cell-based; conditions: 72 h
Source text: as §1, §2

[5] = system: OV2008 (cisplatin-sensitive) cells; assay: MTT cytotoxicity, OV2008 (cisplatin-sensitive); assay type: cell-based; conditions: 72 h, read-out: IC50 value, cisplatin-sensitive cancer, OV2008
Source text: as §1, §2

[6] = system: A2780 cisplatin-resistant cancer cells; assay: MTT cytotoxicity, cisplatin-resistant A2780; assay type: cell-based
Source text: as §1, §2

[7] = system: C13 (cisplatin-resistant) cells; assay: MTT cytotoxicity, C13 (cisplatin-resistant); assay type: cell-based
Source text: as §1, §2

[8] = Pharmacokinetic study (HPLC-MS of blood samples); assay type: in vivo; conditions: male C57BL/6 mice
Procedure: Pharmacokinetic study of cobalt complex 2 was performed in male C57BL/6 mice by the dosage of 40 mg/kg. The source of mouse and practice of husbandry were the same as described in the methodology section of LLC-1 Xenograft Tumor experiment. Cobalt complex 2 was diluted in the formula (PEG400: H2O: Ethanol = 6:3:1) and administered by intraperitoneal in a volume of 0.005 mL/g bodyweight. After dosing, blood samples were collected to sodium heparin anticoagulant tube at different time points (5, 15, 30 min, and then 1, 2, 4, 8, 12 and 24 hours); 4 mice were used for each time point. Approximately 200 μL of blood was collected via orbital vein from each anesthetized mouse by isoflurane. Plasma was separated by centrifugation at 3000 g for 10 minutes at 4°C. The plasma was protected and stored at −80°C until analyzed by liquid chromatography-mass spectrometry/mass spectrometry (LC-MS/MS) for quantification.
Plasma samples were thawed at room temperature and then vortexed to ensure sample solution homogeneity. Firstly, a 20 μL aliquot of each plasma sample were loaded into 1.5 mL tube, 100 μL acetonitrile was added, vortexed then centrifuged at 13000 rpm for 10 min. the supernatant was collected. The plasma cobalt complex 2 concentrations were quantified using Thermo HPLC Ultimate 3000 system. The compound in plasma samples were analyzed by using the Agilent Zorbax Eclipse Plus C-18 column with a particle size of 1.8 μm. The parameters of the gradient elution program were applied as follows: mobile phase A (0.1% formic acid in water) and mobile phase B acetonitrile: 0–5.5 min, 20% B; 5.5–7 min, 90% B; 7–10 min, 20% B. The column and autosampler temperature were maintained at 40 and 4 °C, respectively. The gas temperature was set 320 °C with flow rate (0.8 mL/min), gases were set at 10 psi for the nebulizer, capillary, 3500 V.

[9] = system: A549 taxol-sensitive cancer cells; assay: MTT cytotoxicity, taxol-sensitive A549; assay type: cell-based; conditions: Homo sapiens, 72 h
Source text: as §1, §2

[10] = system: MCF-7 taxol-sensitive cancer cells; assay: MTT cytotoxicity, taxol-sensitive MCF-7; assay type: cell-based; conditions: Homo sapiens, MCF7, 72 h
Source text: as §1, §2

[11] = system: HCT-8 taxol-resistant cancer cells; assay: MTT cytotoxicity, taxol-resistant HCT-8; assay type: cell-based
Source text: as §1, §2

[12] = system: MCF-7 taxol-resistant cancer cells; assay: MTT cytotoxicity, taxol-resistant MCF-7; assay type: cell-based
Source text: as §1, §2

[13] = system: A549 taxol-resistant cancer cells; assay: MTT cytotoxicity, taxol-resistant A549; assay type: cell-based
Source text: as §1, §2

[14] = system: taxol-resistant MCF-7, HCT-8, and A549 cancer cells; assay: MTT cytotoxicity, summary over taxol-sensitive/resistant MCF-7, HCT-8 and A549 pairs; assay type: cell-based; conditions: IC50 of taxol-resistant over taxol-sensitive cells; over MCF-7, HCT-8 and A549
Procedure: as §2

[15] = system: HCT-8 taxol-sensitive cancer cells; assay: MTT cytotoxicity, taxol-sensitive HCT-8; assay type: cell-based; conditions: Homo sapiens, 72 h
Source text: as §1, §2

SMILES: N.N.[Cl][Pt][Cl] [Cisplatin, cis-[Pt^II(NH3)2Cl2], reference compound]
- pIC50 [1]: 5.41
- resistant factor in cisplatin-resistant cancers (summary) [2]: up to 13.25
- pIC50 ([3]; SGC-7901 cisplatin-resistant, MTT, 72 h): 4.37
- Resistant Factor, SGC-7901 ([3]; cisplatin-resistant over cisplatin-sensitive IC50, SGC-7901): 10.97
- pIC50 [4]: 4.82
- pIC50 [5]: 4.74
- pIC50 ([6]; A2780 cisplatin-resistant, MTT, 72 h): < 3.70
- Resistant Factor, A2780 ([6]; cisplatin-resistant over cisplatin-sensitive IC50, A2780): > 13.25
- pIC50 ([7]; C13 (cisplatin-resistant), MTT, 72 h, read-out: IC50 value, cisplatin-resistant cancer, C13): < 3.70
- Resistant Factor, OV2008/C13 pair ([7]; C13 (resistant) IC50 over OV2008 (sensitive) IC50): > 11.0

SMILES: Cc1ccnc(-c2cc(C)ccn2)c1 [Me2-bpy]
- species detected in blood samples by HPLC-MS ([8]; 40 mg/kg intraperitoneal of complex 2, 5 min to 24 hours): only the free ligand of Me2-bpy was detected
- free ligand signal (m/z 185.1071) in samples after 2-hour time interval ([8]; 40 mg/kg intraperitoneal of complex 2, after 2 hours): very weak or no detectable signal

SMILES: CC(=O)O[C@H]1C(=O)[C@@]2(C)[C@H]([C@H](OC(=O)c3ccccc3)[C@]3(O)C[C@H](OC(=O)[C@H](O)[C@@H](NC(=O)c4ccccc4)c4ccccc4)C(C)=C1C3(C)C)[C@]1(OC(C)=O)CO[C@@H]1C[C@@H]2O [Taxol, reference compound]
- pIC50 [9]: 5.81
- pIC50 [10]: 4.91
- pIC50 ([11]; Homo sapiens, HCT-8 taxol-resistant, MTT, 72 h): < 3.70
- Resistant Factor, HCT-8 ([11]; IC50 of taxol-resistant cells over IC50 of taxol-sensitive cells, HCT-8): >15.9
- pIC50 ([12]; Homo sapiens, MCF7, MCF-7 taxol-resistant, MTT, 72 h): 4.26
- Resistant Factor, MCF-7 ([12]; IC50 of taxol-resistant cells over IC50 of taxol-sensitive cells, MCF-7): 4.51
- pIC50 ([13]; Homo sapiens, A549 taxol-resistant, MTT, 72 h): 4.18
- Resistant Factor, A549 ([13]; IC50 of taxol-resistant cells over IC50 of taxol-sensitive cells, A549): 42.4
- resistant factor in taxol-resistant cancers (summary) [14]: up to 42.4
- pIC50 [15]: 4.90
